Assay results as given in US20120277177A1, “CRYSTALLINE PHASES OF 5,6-DICHLORO-2-(ISOPROPYLAMINO)-1-BETA-RIBOFURANOSYL-1H-BENZIMIDAZOLE” (priority 2010, published 2012).

Assay: Solid-state stability on storage in the well-plate under ambient temperature and relative humidity
Assay type: physicochemical
Settings: for form change (desolvation / transformation) after storage: storage in the well-plate under ambient temperature and relative humidity for approximately 3 weeks
Text: The invention relates to the anhydrate crystalline Form VIII, hydrates and solvates both in pure form and in admixture with other anhydrate forms, hydrates or solvates of the compound of formula (I).

Row | Structure (SMILES) | form change (transformation) after storage (approximately 4 weeks of storage under ambient conditions) | form change (desolvation / transformation) after storage
1 | CC(C)Nc1nc2cc(Cl)c(Cl)cc2n1[C@H]1O[C@@H](CO)[C@H](O)[C@@H]1O [t-butylmethyl ether solvate 2, 5,6-dichloro-2-(isopropylamino)-1-(β-L-ribofuranosyl)-1H-benzimidazole] | partially transformed into Form VI | –
2 | CC(C)Nc1nc2cc(Cl)c(Cl)cc2n1[C@H]1O[C@@H](CO)[C@H](O)[C@@H]1O [acetonitrile solvate, 5,6-dichloro-2-(isopropylamino)-1-(β-L-ribofuranosyl)-1H-benzimidazole] | – | completely desolvated and transformed to the anhydrate Form V
3 | CC(C)Nc1nc2cc(Cl)c(Cl)cc2n1[C@H]1O[C@@H](CO)[C@H](O)[C@@H]1O [n-propyl acetate solvate, 5,6-dichloro-2-(isopropylamino)-1-(β-L-ribofuranosyl)-1H-benzimidazole] | – | partially desolvated and transformed to the anhydrate Form VI
